Measured values as given in patent publication US10954193B2 (Vanderbilt University, priority 2013, dated 2021).

target: recombinant Mcl-1 (residues 172-327) (Homo sapiens (Human), UniProt Q07820); assay: Bak peptide binding assay, fluorescence polarization anisotropy competition (FITC-Bak), Mcl-1; conditions: Table 3, binned ranges; FITC-Bak peptide 10 nM, Mcl-1 14 nM; read-out: Ki for inhibition of Mcl-1;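 note: displacement of labeled Bak peptide read by fluorescence anisotropy, 10-point threefold dilutions from 20 µM top dose in 5% DMSO, 90 min incubation at room temperature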
Sequence (Q07820 172-327): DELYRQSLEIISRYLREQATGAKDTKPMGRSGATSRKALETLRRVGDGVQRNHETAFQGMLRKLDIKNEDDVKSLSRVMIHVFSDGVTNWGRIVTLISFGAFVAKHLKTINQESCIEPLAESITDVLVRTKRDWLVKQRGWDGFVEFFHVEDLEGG
Description: Bak Peptide Binding Assay
Compound affinity was measured using a fluorescence polarization anisotropy competition assay. Anisotropy measurements were carried out in 384-well, black, flat-bottom plates (Greiner Bio-one, Monroe, N.C., USA). […] 10 nM FITC-Bak peptide and 14 nM recombinant Mcl-1 (residues 172-327) were added to assay buffer (3 mM dithiothreitol, 50 mM NaCl, 20 mM Tris, pH 7.5).
Compounds are diluted in DMSO in a 10-point, 3-fold serial dilution scheme. 2.5 uL compound is added to 47.5 uL of assay buffer containing FITC-Bak and protein, for a final DMSO concentration of 5% and a top concentration of 20 uM. […] The plate was mixed and incubated for 90 minutes at room temperature. Anisotropy is measured at excitation wavelength 480 nm and emission wavelength 535 nm using an EnVision Multi-label plate reader (PerkinElmer, Wellesley, Mass., USA).

Structure (SMILES)	Ki
Cc1cc(OCCCc2c(C)n(Cc3ccc(CC(=O)O)cc3)c3c(-c4c(C)nn(C)c4C)c(Cl)ccc23)cc(C)c1Cl [Example 103, 2-(4-((6-chloro-3-(3-(4-chloro-3,5-dimethylphenoxy)propyl)-2-methyl-7-(1,3,5-trimethyl-1H-pyrazol-4-yl)-1H-indol-1-yl)methyl)phenyl)acetic acid]	≤ 100 nM
Cc1cc(OCCCc2c(C(F)(F)F)n(CCC(=O)O)c3ccccc23)cc(C)c1Cl [Example 135, 3-(3-(3-(4-chloro-3,5-dimethylphenoxy)propyl)-2-(trifluoromethyl)-1H-indol-1-yl)propanoic acid]	≤ 100 nM
Cc1cnccc1-c1cccc2c(CCCOc3cc(C)c(Cl)c(C)c3)c(C)n(CCC(=O)O)c12 [Example 72, 3-(3-(3-(4-chloro-3,5-dimethylphenoxy)propyl)-2-methyl-7-(3-methylpyridin-4-yl)-1H-indol-1-yl)propanoic acid]	≤ 100 nM
Cc1cc(OCCCc2c(C)n(CCC(=O)NS(=O)(=O)c3ccccc3[N+](=O)[O-])c3c(-c4c(C)nn(C)c4C)cccc23)cc(C)c1Cl [Example 91, 3-(3-(3-(4-chloro-3,5-dimethylphenoxy)propyl)-2-methyl-7-(1,3,5-trimethyl-1H-pyrazol-4-yl)-1H-indol-1-yl)-N-((2-nitrophenyl)sulfonyl)propanamide]	≤ 100 nM
Cc1cc(OCCCc2c(C)n(CCC(=O)O)c3c(-c4c(C)nn(Cc5cccnc5)c4C)cccc23)cc(C)c1Cl [Example 133, 3-(3-(3-(4-chloro-3,5-dimethylphenoxy)propyl)-7-(3,5-dimethyl-1-(pyridin-3-ylmethyl)-1H-pyrazol-4-yl)-2-methyl-1H-indol-1-yl)propanoic acid]	≤ 100 nM
O=C(O)Cn1cc(CCCOc2cccc3ccccc23)c2ccccc21 [Example 6, 2-(3-(3-(naphthalen-1-yloxy)propyl)-1H-indol-1-yl)acetic acid]	1000 to 9990 nM
Cc1cc(OCCCc2c(C)n(Cc3ccc(C(=O)O)cc3)c3c(-c4c(C)n[nH]c4C)cccc23)cc(C)c1Cl [Example 98, 4-((3-(3-(4-chloro-3,5-dimethylphenoxy)propyl)-7-(3,5-dimethyl-1H-pyrazol-4-yl)-2-methyl-1H-indol-1-yl)methyl)benzoic acid]	≤ 100 nM
Cc1cc(OCCCc2cn(CCC(=O)O)c3c(-c4cn[nH]c4)cccc23)cc(C)c1Cl [Example 36, 3-(3-(3-(4-chloro-3,5-dimethylphenoxy)propyl)-7-(1H-pyrazol-4-yl)-1H-indol-1-yl)propanoic acid]	101 to 299 nM
CS(=O)(=O)NC(=O)CCn1cc(CCCOc2cccc3ccccc23)c2c(Cl)cccc21 [Example 23, 3-(4-chloro-3-(3-(naphthalen-1-yloxy)propyl)-1H-indol-1-yl)-N-(methylsulfonyl)propanamide]	1000 to 9990 nM
Cc1cc(OCCCc2c(C)n(CCC(=O)O)c3c(-c4c(C)nn(CC5CCOC5)c4C)cccc23)cc(C)c1Cl (stereo not shown) [Example 106, 3-(3-(3-(4-chloro-3,5-dimethylphenoxy)propyl)-7-(3,5-dimethyl-1-((tetrahydrofuran-3-yl)methyl)-1H-pyrazol-4-yl)-2-methyl-1H-indol-1-yl)propanoic acid]	≤ 100 nM
CS(=O)(=O)NC(=O)Cn1cc(CCCOc2cccc3ccccc23)c2ccccc21 [Example 24, N-(methylsulfonyl)-2-(3-(3-(naphthalen-1-yloxy)propyl)-1H-indol-1-yl)acetamide]	1000 to 9990 nM
Cc1cc(OCCCc2c(C)n(CCC(=O)NS(=O)(=O)c3cccc([N+](=O)[O-])c3)c3c(-c4c(C)nn(C)c4C)cccc23)cc(C)c1Cl [Example 92, 3-(3-(3-(4-chloro-3,5-dimethylphenoxy)propyl)-2-methyl-7-(1,3,5-trimethyl-1H-pyrazol-4-yl)-1H-indol-1-yl)-N-((3-nitrophenyl)sulfonyl)propanamide]	≤ 100 nM
CS(=O)(=O)NC(=O)CCn1cc(CCCOc2cccc3ccccc23)c2ccc(Cl)cc21 [Example 21, 3-(6-chloro-3-(3-(naphthalen-1-yloxy)propyl)-1H-indol-1-yl)-N-(methylsulfonyl)propanamide]	501 to 999 nM
Cc1cc(OCCCc2c(C)n(Cc3ccccc3C(=O)O)c3c(-c4c(C)n[nH]c4C)cccc23)cc(C)c1Cl [Example 97, 2-((3-(3-(4-chloro-3,5-dimethylphenoxy)propyl)-7-(3,5-dimethyl-1H-pyrazol-4-yl)-2-methyl-1H-indol-1-yl)methyl)benzoic acid]	1000 to 9990 nM
Cc1cc(OCCCc2cn(C(C)C(=O)NS(C)(=O)=O)c3ccccc23)cc(C)c1Cl (racemic) [Example 59, (±)-2-(3-(3-(4-chloro-3,5-dimethylphenoxy)propyl)-1H-indol-1-yl)-N-(methylsulfonyl)propanamide]	501 to 999 nM
Cc1cc(OCCCc2c(C)n(CCC(=O)O)c3c(-c4c(C)nn(CCN5CCCC5)c4C)cccc23)cc(C)c1Cl [Example 80, 3-(3-(3-(4-chloro-3,5-dimethylphenoxy)propyl)-7-(3,5-dimethyl-1-(2-(pyrrolidin-1-yl)ethyl)-1H-pyrazol-4-yl)-2-methyl-1H-indol-1-yl)propanoic acid]	≤ 100 nM

Structure (SMILES)	Ki
CCn1nc(C)c(-c2cccc3c(CCCOc4cc(C)c(Cl)c(C)c4)c(C)n(CCC(=O)O)c23)c1C [Example 77, 3-(3-(3-(4-chloro-3,5-dimethylphenoxy)propyl)-7-(1-ethyl-3,5-dimethyl-1H-pyrazol-4-yl)-2-methyl-1H-indol-1-yl)propanoic acid]	≤ 100 nM
Cc1cc(OCCCc2cn(CCC(=O)NS(C)(=O)=O)c3ccccc23)cc(C)c1Cl [Example 18, 3-(3-(3-(4-chloro-3,5-dimethylphenoxy)propyl)-1H-indol-1-yl)-N-(methylsulfonyl)propanamide]	1000 to 9990 nM
Cc1cc(OCCCc2c(C(F)(F)F)n(CCc3ccc(C(=O)O)cc3)c3c(-c4c(C)nn(C)c4C)cccc23)cc(C)c1Cl [Example 118, 4-(2-(3-(3-(4-chloro-3,5-dimethylphenoxy)propyl)-2-(trifluoromethyl)-7-(1,3,5-trimethyl-1H-pyrazol-4-yl)-1H-indol-1-yl)ethyl)benzoic acid]	≤ 100 nM
Cc1cc(OCCCc2c(C(F)(F)F)n(Cc3ccc(C(=O)O)cc3)c3c(-c4c(C)nn(C)c4C)cccc23)cc(C)c1Cl [Example 124, 4-((3-(3-(4-chloro-3,5-dimethylphenoxy)propyl)-2-(trifluoromethyl)-7-(1,3,5-trimethyl-1H-pyrazol-4-yl)-1H-indol-1-yl)methyl)benzoic acid]	≤ 100 nM
Cc1cc(OCCCc2cn(CC(=O)O)c3cccc(Cl)c23)cc(C)c1Cl [Example 9, 2-(4-chloro-3-(3-(4-chloro-3,5-dimethylphenoxy)propyl)-1H-indol-1-yl)acetic acid]	501 to 999 nM
Cc1cc(OCCCc2c(C)n(Cc3ccc(C(=O)NS(=O)(=O)c4ccccn4)cc3)c3c(-c4c(C)nn(C)c4C)cccc23)cc(C)c1Cl [Example 132, 4-((3-(3-(4-chloro-3,5-dimethylphenoxy)propyl)-2-methyl-7-(1,3,5-trimethyl-1H-pyrazol-4-yl)-1H-indol-1-yl)methyl)-N-(pyridin-2-ylsulfonyl)benzamide]	≤ 100 nM
Cc1cc(OCCCc2c(C)n(Cc3ccc(C(=O)NS(=O)(=O)c4ccccc4)cc3)c3c(-c4c(C)nn(C)c4C)cccc23)cc(C)c1Cl [Example 130, 4-((3-(3-(4-chloro-3,5-dimethylphenoxy)propyl)-2-methyl-7-(1,3,5-trimethyl-1H-pyrazol-4-yl)-1H-indol-1-yl)methyl)-N-(phenylsulfonyl)benzamide]	≤ 100 nM
Cc1cc(OCCCc2c(C)n(CCC(=O)NS(=O)(=O)c3ccncc3)c3c(-c4c(C)nn(C)c4C)cccc23)cc(C)c1Cl [Example 96, 3-(3-(3-(4-chloro-3,5-dimethylphenoxy)propyl)-2-methyl-7-(1,3,5-trimethyl-1H-pyrazol-4-yl)-1H-indol-1-yl)-N-(pyridin-4-ylsulfonyl)propanamide]	≤ 100 nM
Cc1cc(OCCCc2c(C)n(Cc3cccc(C(=O)NS(=O)(=O)c4ccccn4)c3)c3c(-c4c(C)nn(C)c4C)cccc23)cc(C)c1Cl [Example 126, 3-((3-(3-(4-chloro-3,5-dimethylphenoxy)propyl)-2-methyl-7-(1,3,5-trimethyl-1H-pyrazol-4-yl)-1H-indol-1-yl)methyl)-N-(pyridin-2-ylsulfonyl)benzamide]	≤ 100 nM
Cc1cc(OCCCc2c(C)n(Cc3cccc(C(=O)O)c3)c3c(-c4c(C)nn(C)c4C)c(Cl)ccc23)cc(C)c1Cl [Example 102, 3-((6-chloro-3-(3-(4-chloro-3,5-dimethylphenoxy)propyl)-2-methyl-7-(1,3,5-trimethyl-1H-pyrazol-4-yl)-1H-indol-1-yl)methyl)benzoic acid]	≤ 100 nM
Cc1cc(OCCCc2c(C)n(CC(=O)O)c3c(-c4c(C)nn(C)c4C)c(Cl)ccc23)cc(C)c1Cl [Example 114, 2-(6-chloro-3-(3-(4-chloro-3,5-dimethylphenoxy)propyl)-2-methyl-7-(1,3,5-trimethyl-1H-pyrazol-4-yl)-1H-indol-1-yl)acetic acid]	≤ 100 nM
Cc1cc(OCCCc2cn(C(C)CC(=O)O)c3ccccc23)cc(C)c1Cl (racemic) [Example 55, (±)-3-(3-(3-(4-chloro-3,5-dimethylphenoxy)propyl)-1H-indol-1-yl)butanoic acid]	501 to 999 nM
Cc1cc(OCCCc2cn(CCC(=O)NS(=O)(=O)c3ccc(Oc4ccccc4)cc3)c3cc(Cl)ccc23)cc(C)c1Cl [Example 40, 3-(6-chloro-3-(3-(4-chloro-3,5-dimethylphenoxy)propyl)-1H-indol-1-yl)-N-((4-phenoxyphenyl)sulfonyl)propanamide]	301 to 500 nM
Cc1cc(OCCCc2c(C)n(CCC(=O)O)c3c(-c4c(C)nn(CCN5CCOCC5)c4C)cccc23)cc(C)c1Cl [Example 79, 3-(3-(3-(4-chloro-3,5-dimethylphenoxy)propyl)-7-(3,5-dimethyl-1-(2-morpholinoethyl)-1H-pyrazol-4-yl)-2-methyl-1H-indol-1-yl)propanoic acid]	≤ 100 nM
Cc1cc(OCC(C)Cc2cn(CCC(=O)O)c3ccccc23)cc(C)c1Cl (stereo not shown) [Example 17, 3-(3-(3-(4-chloro-3,5-dimethylphenoxy)-2-methylpropyl)-1H-indol-1-yl)propanoic acid]	1000 to 9990 nM
